In US8426446B2, “Acrylamide derivative and use thereof in manufacture of medicament” (Beijing Shiqiao Biopharm Co. Ltd., priority 2009, dated 2013):

Tested on: Human Leukemia Cell K562
Experiment: Inhibitory effects on Human Leukemia Cell K562 (MTT)
Format: cell-based
Details: Homo sapiens, K562 cells, 72 h~120 h
Experimental: K562 cells were seeded in RPMI1640 cell culture solution containing 10% of fetal calf serum (supplemented with 100 ku/L of penicillin and streptomycin each). Culture dish was placed in the cell incubator under 5% of CO2 at 37° C. The culture solution was centrifuged and replaced every 2-3 days to passage and collect cells.
Cells in logarithmic growth phase were formulated into the cell suspensions at the required concentration with RPMI1640 culture solution containing 10% fetal calf serum. The resulting mixture was added to 96-wells cell culture plate at 3,000 cells per well (100 μl); after 12 hours of culture, to each well was added different amount of stock solution. The final concentrations of the samples are 100 μg/ml, 10 μg/ml, 1 μg/ml, […], and 0.01 μg/ml respectively in triplicate. After 72 h˜120 h, supernatant was discarded. To each well was added […] fresh serum-free culture solution containing 5 mg/ml blue tetrazolium (MTT). After culturing for 4 hours at 37° C., the mixture was centrifuged at 3000 rpm/min and the supernatant was discarded. Formazan was dissolved with 200 μl DMSO. After vortex oscillation for 1 min, absorbance value (OD-value) was measured on microplate reader at the wavelength of 570/450 nm. Inhibition ratio=(control group OD-value−drug group OD-value)/control group OD-value×100%.

IC50 [nM]	SMILES
2 to 20	Cc1ccc(C(=O)Nc2ccc(F)c(Cl)c2)cc1NC(=O)/C=C/c1cccnc1 [compound 50, N-(3-chloro-4-fluorophenyl)-4-methyl-3-(3-(pyridin-3-yl)acrylamido)benzamide]
< 2	Cc1ccc(C(=O)Nc2cccc(C(F)(F)F)c2)cc1NC(=O)/C=C/c1cccnc1 [compound 51, N-(3-(trifluoromethyl)phenyl)-4-methyl-3-(3-(pyridin-3-yl)acrylamido)benzamide]
< 2	Cc1ccc(C(=O)Nc2ccc(Br)cc2F)cc1NC(=O)/C=C/c1cccnc1 [compound 52, N-(4-bromo-2-fluorophenyl)-4-methyl-3-(3-(pyridin-3-yl)acrylamido)benzamide]
< 1	Cc1ccc(C(=O)Nc2ccc(OC(F)(F)F)cc2)cc1NC(=O)/C=C/c1cccnc1 [compound 53, N-(4-(trifluoromethoxy)phenyl)-4-methyl-3-(3-(pyridin-3-yl)acrylamido)benzamide]
< 2	Cc1cn(-c2ccc(NC(=O)c3ccc(C)c(NC(=O)/C=C/c4cccnc4)c3)cc2C(F)(F)F)cn1 [compound 55, N-(4-(4-methyl-1H-imidazol-1-yl)-3-(trifluoromethyl)phenyl)-4-methyl-3-(3-(pyridin-3-yl)acrylamido)benzamide]
2 to 20	Cc1ccc(C(=O)Nc2ccc(Cl)c(Cl)c2)cc1NC(=O)/C=C/c1cccnc1 [compound 56, N-(3,4-dichlorophenyl)-4-methyl-3-(3-(pyridin-3-yl)acrylamido)benzamide]
2 to 20	Cc1ccc(C(=O)Nc2cc(C(F)(F)F)ccc2Cl)cc1NC(=O)/C=C/c1cccnc1 [compound 57, N-(2-chloro-5-(trifluoromethyl)phenyl)-4-methyl-3-(3-(pyridin-3-yl)acrylamido)benzamide]
< 1	Cc1ccc(C(=O)Nc2ccc(Cl)c(C(F)(F)F)c2)cc1NC(=O)/C=C/c1cccnc1 [compound 58, N-(4-chloro-3-(trifluoromethyl)phenyl)-4-methyl-3-(3-(pyridin-3-yl)acrylamido)benzamide]
< 1	Cc1ccc(C(=O)Nc2ccc(F)c(C(F)(F)F)c2)cc1NC(=O)/C=C/c1cccnc1 [compound 60, N-(4-fluoro-3-(trifluoromethyl)phenyl)-4-methyl-3-(3-(pyridin-3-yl)acrylamido)benzamide]
< 1	Cc1ccc(NC(=O)c2ccc(C)c(NC(=O)/C=C/c3cccnc3)c2)cc1F [compound 61, N-(3-fluoro-4-methylphenyl)-4-methyl-3-(3-(pyridin-3-yl)acrylamido)benzamide]
< 1	Cc1ccc(C(=O)Nc2ccc(C)c(C(F)(F)F)c2)cc1NC(=O)/C=C/c1cccnc1 [compound 62, N-(4-methyl-3-(trifluoromethyl)phenyl)-4-methyl-3-(3-(pyridin-3-yl)acrylamido)benzamide]
2 to 20	Cc1ccc(NC(=O)c2ccc(C)c(NC(=O)/C=C/c3cccnc3)c2)cc1 [compound 66, N-(4-(methyl)phenyl)-4-methyl-3-(3-(pyridin-3-yl)acrylamido)benzamide]
2 to 20	Cc1ccc(C(=O)Nc2c(C)cccc2Cl)cc1NC(=O)/C=C/c1cccnc1 [compound 67, N-(2-chloro-6-methylphenyl)-4-methyl-3-(3-(pyridin-3-yl)acrylamido)benzamide]
< 1	Cc1ccc(C(=O)Nc2ccc(N3CCOCC3)c(C(F)(F)F)c2)cc1NC(=O)/C=C/c1cccnc1 [compound 69, N-(4-(morpholin-4-yl)-3-(trifluoromethyl)phenyl)-4-methyl-3-(3-(pyridin-3-yl)acrylamido)benzamide]
< 1	Cc1ccc(C(=O)Nc2ccc(N3CCN(C)CC3)c(C(F)(F)F)c2)cc1NC(=O)/C=C/c1cccnc1 [compound 71, N-(4-(4-methylpiperazin-1-yl)-3-(trifluoromethyl)phenyl)-4-methyl-3-(3-(pyridin-3-yl)acrylamido)benzamide]
